# Values quoted from earlier work as cited in patent publication US12594266B2, “Triterpenoid antifungals for the treatment or prevention of Pneumocystis spp. pneumonia” (priority 2019, dated 2026).
# Like-named read-outs stand apart in the source and are kept apart here. *1 amine or outer side, *2 acyl side, *3 side chain or, on linkers, in order; H or OH if unused. Where a SMILES comes first, the peptide text is derived from it. Bridges are numbered along the chain shown (N, C = ends). [ ]: non-standard residue; d: D form. The star is where a group is joined. hTyr(3S-OH,4S-OH,3'-OSO3H) = N[C@H](C(=O)O)[C@H](O)[C@@H](O)c1ccc(O)c(OS(=O)(=O)O)c1; Orn(4R-OH,5R-OH) = O=C([C@H](C[C@@H](O)[C@@H](O)N[*:3])N[*:1])[*:2]; Pro(3S-OH,4S-Me) = C[C@H]1CN[C@H](C(=O)O)[C@H]1O; X1 = CCCCCOc1ccc(-c2cc(-c3ccc(C(=O)*)cc3)no2)cc1; Gln(3R-OH) = NC(=O)C[C@@H](O)[C@H](N)C(=O)O; Hyp = O=C(O)[C@@H]1C[C@@H](O)CN1
# Columns and labels:
# [1] = total radioactivity, 15 mg/kg oral, male pigmented Long-Evans rats, cited from earlier work
# Pneumocystis spp. = conditions: cited from earlier work; for relative effectiveness among echinocandins: murine PCP
smiles,measurement,setting,value
CC(C)[C@@H](C)[C@@]1(C)CC[C@]2(C)[C@H]3CC[C@@H]4[C@@]5(COC[C@]4(C)[C@@H](OC[C@](C)(N)C(C)(C)C)[C@H](n4ncnc4-c4ccncc4)C5)C3=CC[C@@]2(C)[C@@H]1C(=O)O [[^14C]-SCY-078],AUCall,[1]; Adrenal gland,321.126 μg equiv*h/g
same,Tissue:Blood AUC Ratio,[1]; Adrenal gland,48.431
same,AUCall,[1]; Blood (cardiac),6.631 μg equiv*h/g
same,Tissue:Blood AUC Ratio,[1]; Blood (cardiac),1.000
same,AUCall,[1]; Bone marrow (femur),238.388 μg equiv*h/g
same,Tissue:Blood AUC Ratio,[1]; Bone marrow (femur),35.953
same,AUCall,[1]; Bone,9.022 μg equiv*h/g
same,Tissue:Blood AUC Ratio,[1]; Bone,1.361
same,AUCall,[1]; Brain (cerebrum),0.727 μg equiv*h/g
same,Tissue:Blood AUC Ratio,[1]; Brain (cerebrum),0.110
same,AUCall,[1]; Cecum,83.542 μg equiv*h/g
same,Tissue:Blood AUC Ratio,[1]; Cecum,12.600
same,AUCall,[1]; Epididymis,75.355 μg equiv*h/g
same,Tissue:Blood AUC Ratio,[1]; Epididymis,11.365
same,AUCall,[1]; Esophagus,41.430 μg equiv*h/g
same,Tissue:Blood AUC Ratio,[1]; Esophagus,6.248
same,AUCall,[1]; Exorbital gland,523.676 μg equiv*h/g
same,Tissue:Blood AUC Ratio,[1]; Exorbital gland,78.980
same,AUCall,[1]; Eye (lens),0.084 μg equiv*h/g
same,Tissue:Blood AUC Ratio,[1]; Eye (lens),0.013
same,AUCall,[1]; Eye (uvea),777.035 μg equiv*h/g
same,Tissue:Blood AUC Ratio,[1]; Eye (uvea),117.191
same,AUCall,[1]; Heart (myocardium),66.558 μg equiv*h/g
same,Tissue:Blood AUC Ratio,[1]; Heart (myocardium),10.038
same,AUCall,[1]; Kidney (cortex),165.880 μg equiv*h/g
same,Tissue:Blood AUC Ratio,[1]; Kidney (cortex),25.018
same,AUCall,[1]; Kidney (medulla),136.610 μg equiv*h/g
same,Tissue:Blood AUC Ratio,[1]; Kidney (medulla),20.603
same,AUCall,[1]; Large intestine,57.682 μg equiv*h/g
same,Tissue:Blood AUC Ratio,[1]; Large intestine,8.727
same,AUCall,[1]; Liver,374.517 μg equiv*h/g
same,Tissue:Blood AUC Ratio,[1]; Liver,56.484
same,AUCall,[1]; Lung,175.593 μg equiv*h/g
same,Tissue:Blood AUC Ratio,[1]; Lung,26.483
same,AUCall,[1]; Lymph node,251.036 μg equiv*h/g
same,Tissue:Blood AUC Ratio,[1]; Lymph node,37.861
same,AUCall,[1]; Oral mucosa,36.782 μg equiv*h/g
same,Tissue:Blood AUC Ratio,[1]; Oral mucosa,5.547
same,AUCall,[1]; Pancreas,110.455 μg equiv*h/g
same,Tissue:Blood AUC Ratio,[1]; Pancreas,16.659
same,AUCall,[1]; Pituitary,640-809 μg equiv*h/g
same,Tissue:Blood AUC Ratio,[1]; Pituitary,96.645
same,AUCall,[1]; Prostate gland,61.301 μg equiv*h/g
same,Tissue:Blood AUC Ratio,[1]; Prostate gland,9.245
same,AUCall,[1]; Salivary gland,149.193 μg equiv*h/g
same,Tissue:Blood AUC Ratio,[1]; Salivary gland,22.501
same,AUCall,[1]; Seminal vesicle,26.827 μg equiv*h/g
same,Tissue:Blood AUC Ratio,[1]; Seminal vesicle,4.046
same,AUCall,[1]; Skeletal muscle,28.304 μg equiv*h/g
same,Tissue:Blood AUC Ratio,[1]; Skeletal muscle,4.269
same,AUCall,[1]; Skin (non-pigmented),74.884 μg equiv*h/g
same,Tissue:Blood AUC Ratio,[1]; Skin (non-pigmented),11.294
same,AUCall,[1]; Skin (pigmented),110.249 μg equiv*h/g
same,Tissue:Blood AUC Ratio,[1]; Skin (pigmented),16.627
same,AUCall,[1]; Small intestine,141.607 μg equiv*h/g
same,Tissue:Blood AUC Ratio,[1]; Small intestine,21.357
same,AUCall,[1]; Spleen,507.638 μg equiv*h/g
same,Tissue:Blood AUC Ratio,[1]; Spleen,75.561
same,AUCall,[1]; Stomach (gastric mucosa),181.074 μg equiv*h/g
same,Tissue:Blood AUC Ratio,[1]; Stomach (gastric mucosa),27.309
same,AUCall,[1]; Testis,64.972 μg equiv*h/g
same,Tissue:Blood AUC Ratio,[1]; Testis,9.799
same,AUCall,[1]; Thymus,195.608 μg equiv*h/g
same,Tissue:Blood AUC Ratio,[1]; Thymus,29.501
same,AUCall,[1]; Thyroid,291.187 μg equiv*h/g
same,Tissue:Blood AUC Ratio,[1]; Thyroid,43.916
same,AUCall,[1]; Urinary bladder,45.955 μg equiv*h/g
same,Tissue:Blood AUC Ratio,[1]; Urinary bladder,6.931
CC[C@H](C)C[C@H](C)CCCCCCCCC(=O)N[C@H]1C[C@@H](O)[C@@H](NCCN)NC(=O)[C@@H]2[C@@H](O)CCN2C(=O)[C@H]([C@H](O)CCN)NC(=O)[C@H]([C@H](O)[C@@H](O)c2ccc(O)cc2)NC(=O)[C@@H]2C[C@@H](O)CN2C(=O)[C@H]([C@@H](C)O)NC1=O [caspofungin],relative effectiveness among echinocandins,Pneumocystis spp.,most effective
"CCCCCOc1ccc(-c2cc(-c3ccc(C(=O)N[C@H]4C[C@@H](O)[C@@H](O)NC(=O)[C@@H]5[C@@H](O)[C@@H](C)CN5C(=O)[C@H]([C@H](O)CC(N)=O)NC(=O)[C@H]([C@H](O)[C@@H](O)c5ccc(O)c(OS(=O)(=O)O)c5)NC(=O)[C@@H]5C[C@@H](O)CN5C(=O)[C@H]([C@@H](C)O)NC4=O)cc3)no2)cc1 [micafungin] (X1-[Orn(4R-OH,5R-OH)]T[Hyp][hTyr(3S-OH,4S-OH,3'-OSO3H)][Gln(3R-OH)][Pro(3S-OH,4S-Me)]; lactam 1-C)",trophic burden versus untreated control mice,"Pneumocystis spp.; any dose, intraperitoneal, 3 weeks",no significant reduction
same,relative effectiveness among echinocandins,Pneumocystis spp.,least effective
